From patent publication US20120245137A1 (Zalicus Pharmaceuticals Ltd., priority 2009, published 2012) come the findings set out here.

Where two headings read alike, the source gives them in different places. Where only a bound is given, the exact number is not on record here.

What all share (assay type): cell-based
The target of experiment [1] is Human Cav 2.2 channels (Homo sapiens, UniProt Q00975). Put plainly: Fluorescent assay for CaV2.2 channels using potassium depolarization (VIPR/FLIPR). The conditions noted are these: FLIPR data; for CAv2.2 IC50 Ratio closed/inact.: ratio closed/inactivated IC50. Summed up: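 HEK293 cells stably expressing human Cav2.2 with α2δ and β subunits plus Kir2.3 were loaded with fluo-4 and incubated 30 min at 25 °C with compound in 4, 12, 25 or 30 mM potassium buffer. Channels were opened with 70 mM potassium (final) and calcium influx was read by fluorescence (Ex 480/Em 535 nm).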

Experiment [2] concerns the target T-type calcium channel (Homo sapiens, UniProt O43497). The experiment is described as follows: T-type channel blocking, FLIPR data (Table 6). The conditions noted are these: CAv3.1. From the text: (§1) Another method, high-throughput spectrophotometric assay, utilizes loading of the cell lines with a fluorescent dye sensitive to intracellular calcium concentration and subsequent examination of the effects of compounds on the ability of depolarization by potassium chloride or other means to alter intracellular calcium levels.

Experiment [3] concerns the target T-type calcium channel (Homo sapiens, UniProt O95180). The experiment is described as follows: T-type channel blocking, FLIPR data (Table 6). The conditions noted are these: for CAv3.2 IC50 Ratio closed/inact.: CAv3.2, ratio closed/inactivated IC50.
Source text: as §1

The target in experiment [4] is CAv1.2 (Homo sapiens, UniProt Q13936). Put plainly: FLIPR data, CAv1.2 channel blocking (Table 6). The conditions noted are these: for CAv1.2 IC50 Ratio closed/inact.: ratio closed/inactivated IC50.
CAv1.2, sequence (Q13936 whole entry): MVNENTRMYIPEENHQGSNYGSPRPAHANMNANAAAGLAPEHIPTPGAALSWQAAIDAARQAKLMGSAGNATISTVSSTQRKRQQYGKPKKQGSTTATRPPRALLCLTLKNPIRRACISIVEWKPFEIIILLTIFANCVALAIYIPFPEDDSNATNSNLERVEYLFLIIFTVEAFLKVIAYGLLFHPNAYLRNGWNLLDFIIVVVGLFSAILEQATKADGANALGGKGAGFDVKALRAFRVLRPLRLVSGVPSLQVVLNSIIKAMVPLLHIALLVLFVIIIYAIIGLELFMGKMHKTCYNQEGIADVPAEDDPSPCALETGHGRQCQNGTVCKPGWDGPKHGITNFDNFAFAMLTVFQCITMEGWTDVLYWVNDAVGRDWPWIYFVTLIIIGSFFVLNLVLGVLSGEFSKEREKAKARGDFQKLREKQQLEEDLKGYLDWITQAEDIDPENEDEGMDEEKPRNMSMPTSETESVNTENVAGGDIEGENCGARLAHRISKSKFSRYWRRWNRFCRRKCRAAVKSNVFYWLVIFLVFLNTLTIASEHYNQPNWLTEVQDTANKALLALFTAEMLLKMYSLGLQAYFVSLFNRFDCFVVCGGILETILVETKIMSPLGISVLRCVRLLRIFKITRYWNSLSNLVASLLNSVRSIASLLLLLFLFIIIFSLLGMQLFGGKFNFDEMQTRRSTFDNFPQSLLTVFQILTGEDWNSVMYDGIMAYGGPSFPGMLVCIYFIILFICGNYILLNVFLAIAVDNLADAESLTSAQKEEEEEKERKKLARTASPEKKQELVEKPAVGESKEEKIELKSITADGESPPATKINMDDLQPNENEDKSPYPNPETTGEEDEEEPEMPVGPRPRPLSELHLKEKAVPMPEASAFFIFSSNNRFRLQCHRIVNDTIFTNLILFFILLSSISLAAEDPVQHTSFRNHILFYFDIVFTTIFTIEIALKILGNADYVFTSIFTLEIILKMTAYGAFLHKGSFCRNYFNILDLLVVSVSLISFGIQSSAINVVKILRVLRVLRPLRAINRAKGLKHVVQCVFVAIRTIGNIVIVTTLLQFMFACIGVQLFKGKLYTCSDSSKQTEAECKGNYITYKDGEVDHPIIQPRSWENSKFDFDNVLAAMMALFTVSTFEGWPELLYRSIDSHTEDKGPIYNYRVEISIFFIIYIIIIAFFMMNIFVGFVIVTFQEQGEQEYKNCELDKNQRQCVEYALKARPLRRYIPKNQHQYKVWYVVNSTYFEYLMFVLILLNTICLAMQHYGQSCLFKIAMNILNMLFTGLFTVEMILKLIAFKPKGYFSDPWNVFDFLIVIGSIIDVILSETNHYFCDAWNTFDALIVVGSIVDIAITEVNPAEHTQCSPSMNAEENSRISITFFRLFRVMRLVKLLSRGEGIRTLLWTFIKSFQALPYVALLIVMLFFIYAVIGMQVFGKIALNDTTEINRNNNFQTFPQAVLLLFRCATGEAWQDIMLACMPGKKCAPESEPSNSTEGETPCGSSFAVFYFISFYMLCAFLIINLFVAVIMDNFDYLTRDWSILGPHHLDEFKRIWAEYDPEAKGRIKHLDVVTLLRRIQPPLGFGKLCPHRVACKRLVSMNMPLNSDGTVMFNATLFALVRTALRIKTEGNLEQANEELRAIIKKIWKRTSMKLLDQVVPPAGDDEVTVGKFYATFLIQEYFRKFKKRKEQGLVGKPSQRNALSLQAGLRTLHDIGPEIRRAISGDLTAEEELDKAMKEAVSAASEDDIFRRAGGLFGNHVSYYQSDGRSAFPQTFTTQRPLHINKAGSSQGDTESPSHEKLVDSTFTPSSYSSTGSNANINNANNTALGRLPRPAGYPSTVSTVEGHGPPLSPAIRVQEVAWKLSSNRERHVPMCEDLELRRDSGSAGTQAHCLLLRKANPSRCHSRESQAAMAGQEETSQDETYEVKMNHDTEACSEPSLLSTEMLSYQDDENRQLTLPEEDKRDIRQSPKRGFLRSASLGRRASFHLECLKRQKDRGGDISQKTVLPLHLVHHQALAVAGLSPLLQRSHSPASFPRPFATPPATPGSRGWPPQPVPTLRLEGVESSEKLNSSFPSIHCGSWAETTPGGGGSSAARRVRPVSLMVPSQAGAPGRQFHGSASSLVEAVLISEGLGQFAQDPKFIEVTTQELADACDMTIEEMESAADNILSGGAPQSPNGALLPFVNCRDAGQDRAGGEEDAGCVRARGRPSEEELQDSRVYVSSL
CAv1.2, sequence (P54289 25-1103 partner): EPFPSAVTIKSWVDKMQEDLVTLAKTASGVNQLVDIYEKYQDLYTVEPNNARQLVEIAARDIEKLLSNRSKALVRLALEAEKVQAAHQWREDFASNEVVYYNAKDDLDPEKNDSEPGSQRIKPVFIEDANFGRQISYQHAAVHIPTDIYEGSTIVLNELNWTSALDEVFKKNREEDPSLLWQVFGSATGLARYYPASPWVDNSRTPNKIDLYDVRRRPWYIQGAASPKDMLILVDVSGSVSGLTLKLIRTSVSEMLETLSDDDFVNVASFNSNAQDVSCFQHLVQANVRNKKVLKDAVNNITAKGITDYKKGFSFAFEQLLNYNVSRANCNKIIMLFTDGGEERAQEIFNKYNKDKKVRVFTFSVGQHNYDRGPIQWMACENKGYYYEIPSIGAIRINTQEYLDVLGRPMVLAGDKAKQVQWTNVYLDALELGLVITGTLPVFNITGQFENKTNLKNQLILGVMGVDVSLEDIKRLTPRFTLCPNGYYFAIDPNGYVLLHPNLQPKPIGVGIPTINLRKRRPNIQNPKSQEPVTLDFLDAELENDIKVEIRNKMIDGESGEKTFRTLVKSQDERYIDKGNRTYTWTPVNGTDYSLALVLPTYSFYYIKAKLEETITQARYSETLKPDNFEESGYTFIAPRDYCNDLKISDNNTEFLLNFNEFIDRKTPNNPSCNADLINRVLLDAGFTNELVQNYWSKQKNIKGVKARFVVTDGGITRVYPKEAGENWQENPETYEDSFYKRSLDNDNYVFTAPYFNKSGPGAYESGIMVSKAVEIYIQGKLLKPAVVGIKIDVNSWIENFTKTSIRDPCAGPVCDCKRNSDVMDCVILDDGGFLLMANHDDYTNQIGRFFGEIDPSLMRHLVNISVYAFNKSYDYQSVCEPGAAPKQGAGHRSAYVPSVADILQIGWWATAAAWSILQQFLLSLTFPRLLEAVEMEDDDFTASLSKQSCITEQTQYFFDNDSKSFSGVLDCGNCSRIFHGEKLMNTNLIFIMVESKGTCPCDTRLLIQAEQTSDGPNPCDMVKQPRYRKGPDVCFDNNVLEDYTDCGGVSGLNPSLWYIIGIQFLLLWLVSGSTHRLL
CAv1.2, sequence (Q08289 whole entry partner): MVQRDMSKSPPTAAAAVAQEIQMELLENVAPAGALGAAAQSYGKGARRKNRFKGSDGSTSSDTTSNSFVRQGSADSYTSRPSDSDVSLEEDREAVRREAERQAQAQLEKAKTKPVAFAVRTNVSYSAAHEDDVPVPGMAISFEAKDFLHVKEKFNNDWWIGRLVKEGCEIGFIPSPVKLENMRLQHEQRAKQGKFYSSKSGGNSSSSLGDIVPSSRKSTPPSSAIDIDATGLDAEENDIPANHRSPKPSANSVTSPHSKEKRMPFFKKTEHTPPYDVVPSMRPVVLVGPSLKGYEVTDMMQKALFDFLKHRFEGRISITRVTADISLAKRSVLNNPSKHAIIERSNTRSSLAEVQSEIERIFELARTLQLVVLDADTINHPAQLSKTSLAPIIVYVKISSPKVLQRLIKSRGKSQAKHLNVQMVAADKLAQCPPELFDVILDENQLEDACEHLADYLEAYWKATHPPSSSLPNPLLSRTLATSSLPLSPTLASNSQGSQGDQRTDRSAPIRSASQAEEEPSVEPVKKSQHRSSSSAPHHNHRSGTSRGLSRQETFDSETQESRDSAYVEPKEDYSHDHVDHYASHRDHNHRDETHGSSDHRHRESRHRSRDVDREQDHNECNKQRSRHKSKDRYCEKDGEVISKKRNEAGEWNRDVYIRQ
[5] abbreviates: closed state, read-out: CAv2.2 IC50 Closed.
Where [6] appears, read: inactivated state, read-out: CAv2.2 IC50 Inact.
[7] abbreviates: CAv3.2, closed state, read-out: CAv3.2 IC50 Closed.
The mark [8] stands for this setting: CAv3.2, inactivated state, read-out: CAv3.2 IC50 Inact.
[9] abbreviates: closed state, read-out: CAv1.2 IC50 Closed.
Setting [10] is: inactivated state, read-out: CAv1.2 IC50 Inact.

For orientation: IC50 means the point on the concentration scale where inhibition reaches its midpoint. Consider `CC(C)([C@H]1C[C@@H](CNC(=O)c2ccc(Cl)c(OC(F)(F)F)c2)C1)S(=O)(=O)c1cccc(C(F)(F)F)c1` [Compound 688], for which the IC50 in experiment [1] (setting [5]) stood at 3.4 µM; in experiment [1] (setting [6]) it was 0.22 µM; in experiment [2], 0.25 µM; in experiment [3] (setting [7]), 0.45 µM; in experiment [3] (setting [8]) it was 0.17 µM; in experiment [4] (setting [9]), 4.59 µM. The IC50 in experiment [4] (setting [10]) was found to be 0.45 µM. Moreover, the “CAv2.2 IC50 Ratio closed/inact.” value in experiment [1] came out at 15.5. Also, in experiment [3], the “CAv3.2 IC50 Ratio closed/inact.” value is 2.6. The “CAv1.2 IC50 Ratio closed/inact.” value in experiment [4] is 10.2.

Consider `CC(C)(C1CC(CNC(=O)c2ccc(Cl)c(F)c2)C1)S(=O)(=O)c1cccc(C(F)(F)F)c1` (stereo not drawn) [Compound 617], for which the IC50 in experiment [1] (setting [5]) worked out at 1.34 µM; in experiment [1] (setting [6]) it was 0.15 µM; in experiment [2], 8.03 µM; in experiment [3] (setting [7]), 2.69 µM; in experiment [3] (setting [8]), 0.81 µM; in experiment [4] (setting [9]), 4.05 µM. The concentration for half-maximal inhibition (IC50) in experiment [4] (setting [10]) amounted to 0.38 µM. The “CAv2.2 IC50 Ratio closed/inact.” value in experiment [1] was 8.9. In addition, in experiment [3], the “CAv3.2 IC50 Ratio closed/inact.” value amounted to 3.3. The “CAv1.2 IC50 Ratio closed/inact.” value in experiment [4] was 10.7.

For `CC(C)(C[C@H]1C[C@H](NC(=O)c2ccc(Cl)cc2S(C)(=O)=O)C1)S(=O)(=O)c1cccc(C(F)(F)F)c1` [Compound 718], the IC50 was 4.71 µM in experiment [1] (setting [5]); 0.15 µM in experiment [1] (setting [6]); not below 10 µM in experiment [2]; 5.68 µM in experiment [3] (setting [7]); 3.67 µM in experiment [3] (setting [8]); not below 10 µM in experiment [4] (setting [9]). Moreover, in experiment [4] (setting [10]), the IC50 was not below 10 µM. In addition, the “CAv2.2 IC50 Ratio closed/inact.” value in experiment [1] amounted to 31.4. In experiment [3], the “CAv3.2 IC50 Ratio closed/inact.” value was determined as 1.5.

For the compound `CC(C)S(=O)(=O)c1cc(C(F)(F)F)cnc1C(=O)N[C@H]1C[C@@H](CC(C)(C)S(=O)(=O)c2cccc(C(F)(F)F)c2)C1` [Compound 729], the IC50 in experiment [1] (setting [5]) is 6.9 µM; in experiment [1] (setting [6]), 0.15 µM; in experiment [2], 8.24 µM; in experiment [3] (setting [7]) it was 8.13 µM; in experiment [3] (setting [8]) it was 6.78 µM; in experiment [4] (setting [9]) it was not below 10 µM. Also, in experiment [4] (setting [10]), the IC50 was 9.3 µM. In experiment [1], the “CAv2.2 IC50 Ratio closed/inact.” value amounted to 46. The “CAv3.2 IC50 Ratio closed/inact.” value in experiment [3] is reported as 1.2. The “CAv1.2 IC50 Ratio closed/inact.” value in experiment [4] came out at 1.1.

In the case of `CC(C)([C@H]1C[C@@H](NC(=O)c2ccc(Cl)cn2)C1)S(=O)(=O)c1cccc(C(F)(F)F)c1` [Compound 578], the IC50 in experiment [1] (setting [5]) was 3.46 µM; in experiment [1] (setting [6]), 0.46 µM; in experiment [2], not below 10 µM; in experiment [3] (setting [7]) it was 7.71 µM; in experiment [3] (setting [8]) it was 5.3 µM; in experiment [4] (setting [9]), 9.07 µM. In addition, the IC50 in experiment [4] (setting [10]) is 8.38 µM. The “CAv2.2 IC50 Ratio closed/inact.” value in experiment [1] is given as 7.5. Moreover, the “CAv3.2 IC50 Ratio closed/inact.” value in experiment [3] is listed as 1.5. Also, the “CAv1.2 IC50 Ratio closed/inact.” value in experiment [4] was 1.1.

For the compound `O=C(NC[C@H]1C[C@H](S(=O)(=O)c2cc(F)cc(C(F)(F)F)c2)C1)c1ccc(C(F)(F)F)nc1` [Compound 704], the IC50 was 10 µM in experiment [1] (setting [5]); 1.65 µM in experiment [1] (setting [6]); not below 10 µM in experiment [2]; not below 10 µM in experiment [3] (setting [7]); 8.75 µM in experiment [3] (setting [8]); not below 10 µM in experiment [4] (setting [10]). For the same compound, the “CAv2.2 IC50 Ratio closed/inact.” value in experiment [1] is 6.1. Also, the “CAv3.2 IC50 Ratio closed/inact.” value in experiment [3] is listed as 1.1.

As to `CC(C)([C@H]1C[C@H](NS(=O)(=O)c2ccc(OC(F)(F)F)cc2)C1)S(=O)(=O)c1cc(F)cc(C(F)(F)F)c1` [Compound 610], the IC50 was 3.58 µM in experiment [1] (setting [5]); 1.13 µM in experiment [1] (setting [6]); 5.3 µM in experiment [2]; not below 10 µM in experiment [3] (setting [7]); 1.43 µM in experiment [3] (setting [8]); 8.93 µM in experiment [4] (setting [9]). Moreover, the IC50 in experiment [4] (setting [10]) came out at 2.93 µM. Also, the “CAv2.2 IC50 Ratio closed/inact.” value in experiment [1] is listed as 3.2. The “CAv3.2 IC50 Ratio closed/inact.” value in experiment [3] is 7. Moreover, in experiment [4], the “CAv1.2 IC50 Ratio closed/inact.” value stood at 3.

In the case of `O=C(NC[C@H]1C[C@H](S(=O)(=O)c2cccc(C(F)(F)F)c2)C1)c1ccc(C(F)(F)F)cc1` [Compound 572], the IC50 in experiment [1] (setting [5]) came out at 3.54 µM; in experiment [1] (setting [6]), 0.27 µM; in experiment [2], 8.16 µM; in experiment [3] (setting [7]), 2.6 µM; in experiment [3] (setting [8]), 1.68 µM; in experiment [4] (setting [9]), 7.35 µM. Further, in experiment [4] (setting [10]), the half-maximal inhibitory concentration (IC50) is 3.01 µM. Further, the “CAv2.2 IC50 Ratio closed/inact.” value in experiment [1] turned out to be 13.1. Moreover, in experiment [3], the “CAv3.2 IC50 Ratio closed/inact.” value was 1.5. The “CAv1.2 IC50 Ratio closed/inact.” value in experiment [4] was 2.4.

As for `CC(C)([C@H]1C[C@H](NC(=O)c2ccnc(C(F)(F)F)n2)C1)S(=O)(=O)c1cc(F)cc(C(F)(F)F)c1` [Compound 595], the concentration for half-maximal inhibition (IC50) in experiment [1] (setting [5]) is 3.63 µM; in experiment [1] (setting [6]), 0.21 µM; in experiment [2], not below 10 µM; in experiment [3] (setting [7]) it was not below 10 µM; in experiment [3] (setting [8]), 9.83 µM; in experiment [4] (setting [9]), not below 10 µM. Further, the IC50 in experiment [4] (setting [10]) was not below 10 µM. Moreover, the “CAv2.2 IC50 Ratio closed/inact.” value in experiment [1] amounted to 17.3. Also, the “CAv3.2 IC50 Ratio closed/inact.” value in experiment [3] came to 1.

For the compound `CC(C)([C@H]1C[C@H](NC(=O)c2ccc(Cl)c(F)c2)C1)S(=O)(=O)c1cccc(OC(F)(F)F)c1` [Compound 633], the IC50 in experiment [1] (setting [5]) was 2.06 µM; in experiment [1] (setting [6]), 0.19 µM; in experiment [2], 2.3 µM; in experiment [3] (setting [7]), 0.63 µM; in experiment [3] (setting [8]), 0.57 µM; in experiment [4] (setting [9]), 5.74 µM. Moreover, the 50% inhibitory concentration (IC50) in experiment [4] (setting [10]) came to 1.18 µM. In experiment [1], the “CAv2.2 IC50 Ratio closed/inact.” value is on record as 10.8. For the same compound, the “CAv3.2 IC50 Ratio closed/inact.” value in experiment [3] is 1.1. Moreover, the “CAv1.2 IC50 Ratio closed/inact.” value in experiment [4] stood at 4.9.

As for `CC(C)([C@H]1C[C@H](NC(=O)c2ccc(F)c(Cl)c2)C1)S(=O)(=O)c1cc(F)cc(C(F)(F)F)c1` [Compound 597], the half-maximal inhibitory concentration (IC50) amounted to 1.43 µM in experiment [1] (setting [5]); 0.17 µM in experiment [1] (setting [6]); 3.8 µM in experiment [2]; 3.12 µM in experiment [3] (setting [7]); 1.21 µM in experiment [3] (setting [8]); 3.7 µM in experiment [4] (setting [9]). The IC50 in experiment [4] (setting [10]) was found to be 0.86 µM. Also, in experiment [1], the “CAv2.2 IC50 Ratio closed/inact.” value is reported as 8.4. In addition, the “CAv3.2 IC50 Ratio closed/inact.” value in experiment [3] stood at 2.6. Further, the “CAv1.2 IC50 Ratio closed/inact.” value in experiment [4] was determined as 4.3.

For the compound `CC(C)(C[C@H]1C[C@H](NC(=O)c2cnc(C(F)(F)F)nc2)C1)S(=O)(=O)c1cccc(C(F)(F)F)c1` [Compound 721], the 50% inhibitory concentration (IC50) in experiment [1] (setting [5]) is 4.86 µM; in experiment [1] (setting [6]) it was 0.51 µM; in experiment [2], not below 10 µM; in experiment [3] (setting [7]) it was 8.44 µM; in experiment [3] (setting [8]), 4.32 µM; in experiment [4] (setting [9]), not below 10 µM. In addition, the IC50 in experiment [4] (setting [10]) worked out at 4.57 µM. Besides, the “CAv2.2 IC50 Ratio closed/inact.” value in experiment [1] stood at 9.5. In experiment [3], the “CAv3.2 IC50 Ratio closed/inact.” value amounted to 2. For the same compound, the “CAv1.2 IC50 Ratio closed/inact.” value in experiment [4] amounted to 2.2.

As for `CC(C)([C@H]1C[C@@H](NS(=O)(=O)c2ccc(C(F)(F)F)cc2)C1)S(=O)(=O)c1cc(F)cc(C(F)(F)F)c1` [Compound 598], the half-maximal inhibitory concentration (IC50) in experiment [1] (setting [5]) is 5.74 µM; in experiment [1] (setting [6]) it was 0.7 µM; in experiment [2] it was 7.56 µM; in experiment [3] (setting [7]), not below 10 µM; in experiment [3] (setting [8]), 4.56 µM; in experiment [4] (setting [9]) it was 9.38 µM. Also, the half-inhibitory concentration (IC50) in experiment [4] (setting [10]) turned out to be 2.83 µM. Moreover, the “CAv2.2 IC50 Ratio closed/inact.” value in experiment [1] is 8.2. Moreover, in experiment [3], the “CAv3.2 IC50 Ratio closed/inact.” value was found to be 2.2. In addition, the “CAv1.2 IC50 Ratio closed/inact.” value in experiment [4] amounted to 3.3.
